In patent US20250340593A1, “METHOD AND COMPOSITION FOR TREATING NEURODEGENERATIVE DISORDER” (priority 2022, published 2025):
Residues, ends and D or L forms follow the SMILES beside them.

Columns and labels:
monomeric Aβ42 = target: T1, monomeric Aβ42 (Homo sapiens, UniProt P05067); assay: Thioflavin-T assay of Aβ42 aggregation kinetics; format: biochemical; conditions: for inhibition of fibril formation (normalized ThT fluorescence): 15 μM monomeric Aβ, equimolar peptide, 24 hours; for ThT fluorescence of peptide alone: highest concentration of peptide alone, no Aβ
T1 construct: purchased Bachem; host or cells: chemical synthesis
Protocol: Thioflavin-T (ThT) assays were performed in black polystyrene 384-well plates with transparent bottom using a Tecan microplate reader with a set of excitation/emission wavelengths of 450/490 nm. Monomeric Aβ42 was prepared as described above and blocking or control peptides (BP ou CP) were used at indicted concentrations, ranging from 0.5 to 15 μM. The final concentration of ThT and monomeric AB42 was used at 15 μM in PBS buffer (pH 7.4), with a total reaction volume per well of 110 μL. The plate was sealed with a transparent plastic film and incubated at 37° C. prior to fluorescence measurement. ThT fluorescence intensity was monitored every 5 min over 24 h at 37° C. without agitation. Three replicates per condition were measured.

[1] = target: T2, biotinylated Aβ42 oligomers (Aβo (42)) (Homo sapiens, UniProt P05067); assay: Peptide array probed with biotinylated Aβ42 oligomers; format: binding; conditions: biotinylated Aβo 0.1 to 10 μg.mL-1, BP result at the lowest concentration (0.1 μg/ml-1)
T2 construct: purchased Bachem; host or cells: chemical synthesis
Protocol: In the context of the invention, cellulose-bound peptide arrays encompassing the heparin binding domain and the C-terminal human VEGF sequence (UniProtKB #P15692) were synthesized by Proteomic Solutions. Overlapping 15-mer peptides were shifted by 3 aa and two copies of the same array were spotted on the slide for quality control and reproducibility. Arrays were blocked for 2 h in Tris buffered saline, 1% Tween 20, 5% BSA to prevent unspecific binding, and were subsequently probed for 15 h at 4° C. with biotinylated AB42 oligomers (Aβo (42)) using concentrations varying from 0.1 to 10 μg.mL-1 or vehicle used as a control. After washing in TBS 1% Tween 20, peptide arrays were incubated with HRP-conjugated Streptavidin for 2 h at RT. Aβo interaction was detected using SuperSignal West Pico PLUS chemiluminescent substrate and non-specific Aβ binding was determined using the control peptide (CP) spotted on the peptide array. […]
Cellulose-bound peptide arrays encompassing the heparin binding domain and the C-terminal human VEGF sequence (UniProtKB #P15692) were synthesized by Proteomic Solutions. […] Aβo interaction was detected using SuperSignal West Pico PLUS chemiluminescent substrate and non-specific Aβ binding was determined using the control peptide (CP) spotted on the peptide array. […]

[2] = tested on: DIV 21 primary hippocampal neurons; assay: Aβ synaptic targeting in primary hippocampal neurons; format: cell-based, mouse; conditions: 500 nM biotinylated HMW Aβo enriched preparation aggregated 2 h with equimolar peptide; neurons treated 30 min
Protocol: Primary hippocampal neuron cultures were prepared from E17-18 C57Bl/6JRj mice. Briefly, hippocampi were removed, cut into pieces in Hank's buffered salt solution (HBSS), digested in HBSS supplemented with trypsin (0.25% v/v) and rinsed in HBSS and BSA 0.2%. Next, hippocampi were triturated in Neurobasal medium without phenol red supplemented with L-glutamine (2 mM), 2% B27, 1% penicillin-streptomycin (10000 U/mL). Hippocampal neurons were then plated onto poly-L-lysine coated coverslips (0.5 mg/ml) at a low density (15×10^3 cells/cm2) for synaptic targeting experiments. Neurons were subsequently cultured for 21 DIV in supplemented Neurobasal medium at 37° C. under 5% CO2, one-half of the media being changed once a week. […]
Treated hippocampal neuron cultures were fixed with 4% paraformaldehyde in 0.1 M phosphate buffer at RT prior to immunostaining. After a blocking step in non-permeabilizing condition (PBS, 1% BSA) surface-bound biotinylated Aβ was detected with fluorescently tagged streptavidin (Alexa Fluor 647, Invitrogen) incubated for 3 h at RT. […]
Immunostainings images were obtained using a confocal Zeiss LSM 880 AiryScan microscope equipped with two diode lasers (405, 561 nm), a laser gaz argon (488 nm) and a laser gaz He/Ne ([…]), a 63x objective and an additional zoom factor (3x). […] Biotinylated Aβ clusters were quantified in each ROI in collapsed Z-stacks.

T1 sequence (P05067 672-713 limits assumed): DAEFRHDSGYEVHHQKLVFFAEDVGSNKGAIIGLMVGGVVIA
T2 sequence (P05067 672-713 limits assumed): as above

| Compound | inhibition of fibril formation (normalized ThT fluorescence) (monomeric Aβ42) | ThT fluorescence of peptide alone (monomeric Aβ42) | steepness of the exponential phase corresponding to Aβ42 nucleation (monomeric Aβ42; peptide 0.5 to 15 μM, 15 μM Aβ42) | labeling of peptide spot by biotinylated Aβo [1] | synapses colocalized with Aβ [2] |
| --- | --- | --- | --- | --- | --- |
| CC(C)[C@H](NC(=O)[C@H](Cc1ccc(O)cc1)NC(=O)[C@@H](NC(=O)[C@H](CO)NC(=O)[C@H](Cc1c[nH]c2ccccc12)NC(=O)[C@H](CO)NC(=O)[C@H](CCCCN)NC(=O)[C@H](Cc1ccc(O)cc1)NC(=O)[C@H](CCCNC(=N)N)NC(=O)[C@H](CO)NC(=O)[C@H](CCCCN)NC(=O)[C@H](CCCCN)NC(=O)[C@H](CCCNC(=N)N)NC(=O)[C@@H](N)CCCCN)C(C)C)C(=O)NCC(=O)O [BP, KRKKSRYKSWSVYVG] (H-KRKKSRYKSWSVYVG-OH; N-terminus and C-terminus assumed) | 95% | does not induce any increase in ThT fluorescence | decreases with increasing concentrations | clear staining | only a small proportion |
| NDYKDDDDKGAAA [CP, reference compound] | no significant effect | does not induce any increase in ThT fluorescence |  | no labelling | ~40% |
